According to PubChem BioAssay (NCI):
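Protocol summary: plate cells (96-well), add compound at 5 concentrations, incubate 48 h, interpolate endpoints linearly. TGI is the concentration that stops growth completely.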

Tests used:
Assay in all cases: NCI tumour cell line growth inhibition, 48 h
SNB-19 CNS = tested on: SNB-19 CNS
NCI-H23 lung = tested on: NCI-H23 lung
SNB-75 CNS = tested on: SNB-75 CNS
PC-3 prostate = tested on: PC-3 prostate
MDA-MB-435 = tested on: MDA-MB-435
SK-MEL-5 melanoma = tested on: SK-MEL-5 melanoma
RPMI-8226 leukemia = tested on: RPMI-8226 leukemia
HS 578T breast = tested on: HS 578T breast
ACHN renal = tested on: ACHN renal
DU-145 prostate = tested on: DU-145 prostate
IGROV1 ovarian = tested on: IGROV1 ovarian
U251 CNS = tested on: U251 CNS
SR leukemia = tested on: SR leukemia
SF-268 CNS = tested on: SF-268 CNS
MCF7 breast = tested on: MCF7 breast
NCI-H460 lung = tested on: NCI-H460 lung
CCRF-CEM leukemia = tested on: CCRF-CEM leukemia
NCI/ADR-RES ovarian = tested on: NCI/ADR-RES ovarian
NCI-H226 lung = tested on: NCI-H226 lung
SK-MEL-28 melanoma = tested on: SK-MEL-28 melanoma
OVCAR-3 ovarian = tested on: OVCAR-3 ovarian
HT29 colon = tested on: HT29 colon
HCT-116 colon = tested on: HCT-116 colon
MDA-MB-231 breast = tested on: MDA-MB-231 breast
K-562 leukemia = tested on: K-562 leukemia
OVCAR-4 ovarian = tested on: OVCAR-4 ovarian
LOX IMVI melanoma = tested on: LOX IMVI melanoma
OVCAR-8 ovarian = tested on: OVCAR-8 ovarian
SK-OV-3 ovarian = tested on: SK-OV-3 ovarian
M14 melanoma = tested on: M14 melanoma
SK-MEL-2 melanoma = tested on: SK-MEL-2 melanoma
UACC-257 melanoma = tested on: UACC-257 melanoma
MALME-3M melanoma = tested on: MALME-3M melanoma
CAKI-1 renal = tested on: CAKI-1 renal
COLO 205 colon = tested on: COLO 205 colon
HCT-15 colon = tested on: HCT-15 colon
SN12C renal = tested on: SN12C renal
T-47D breast = tested on: T-47D breast
RXF 393 renal = tested on: RXF 393 renal
HOP-92 NSCLC = tested on: HOP-92 NSCLC
MDA-N = tested on: MDA-N
BT-549 breast = tested on: BT-549 breast
OVCAR-5 ovarian = tested on: OVCAR-5 ovarian
SW-620 colon = tested on: SW-620 colon
HL-60(TB) leukemia = tested on: HL-60(TB) leukemia
UACC-62 melanoma = tested on: UACC-62 melanoma
A549 NSCLC = tested on: A549 NSCLC
EKVX NSCLC = tested on: EKVX NSCLC
NCI-H522 lung = tested on: NCI-H522 lung
TK-10 renal = tested on: TK-10 renal
HOP-62 NSCLC = tested on: HOP-62 NSCLC
MOLT-4 leukemia = tested on: MOLT-4 leukemia
UO-31 renal = tested on: UO-31 renal
SF-539 CNS = tested on: SF-539 CNS
KM12 colon = tested on: KM12 colon
A498 renal = tested on: A498 renal
SF-295 CNS = tested on: SF-295 CNS
HCC-2998 colon = tested on: HCC-2998 colon
786-0 renal = tested on: 786-0 renal
KM20L2 colon = tested on: KM20L2 colon
DLD-1 colon = tested on: DLD-1 colon
XF 498 CNS = tested on: XF 498 CNS
DMS 114 small cell lung = tested on: DMS 114 small cell lung
M19-MEL melanoma = tested on: M19-MEL melanoma
DMS 273 small cell lung = tested on: DMS 273 small cell lung
SNB-78 CNS = tested on: SNB-78 CNS

Measured: TGI

CCOP(=O)(OCC)C(c1ccc(F)cc1)N(C(=O)NC(F)(F)F)c1cccc(C(F)(F)F)c1 (stereo not drawn)
> 100 µM: SNB-19 CNS | NCI-H23 lung | SNB-75 CNS | PC-3 prostate | MDA-MB-435 | SK-MEL-5 melanoma | RPMI-8226 leukemia | HS 578T breast | ACHN renal | DU-145 prostate | IGROV1 ovarian | U251 CNS | SR leukemia | SF-268 CNS | MCF7 breast | NCI-H460 lung | CCRF-CEM leukemia | NCI/ADR-RES ovarian | NCI-H226 lung | SK-MEL-28 melanoma | OVCAR-3 ovarian | HT29 colon | HCT-116 colon | MDA-MB-231 breast | K-562 leukemia | OVCAR-4 ovarian | LOX IMVI melanoma | OVCAR-8 ovarian | SK-OV-3 ovarian | M14 melanoma | SK-MEL-2 melanoma | UACC-257 melanoma | MALME-3M melanoma | CAKI-1 renal | COLO 205 colon | HCT-15 colon | SN12C renal | T-47D breast | RXF 393 renal | MDA-N | BT-549 breast | OVCAR-5 ovarian | SW-620 colon | HL-60(TB) leukemia | UACC-62 melanoma | A549 NSCLC | EKVX NSCLC | NCI-H522 lung | TK-10 renal | HOP-62 NSCLC | MOLT-4 leukemia | UO-31 renal | SF-539 CNS | KM12 colon | A498 renal | SF-295 CNS | HCC-2998 colon
98.6 µM: HOP-92 NSCLC

O=C(N/N=C\C=C\c1ccc([N+](=O)[O-])o1)C(=O)N/N=C\C=C\c1ccc([N+](=O)[O-])o1
87.1 µM: HL-60(TB) leukemia
3.55 µM: CCRF-CEM leukemia
58.8 µM: SW-620 colon
59.1 µM: OVCAR-8 ovarian
70.1 µM: NCI/ADR-RES ovarian
> 100 µM: SNB-19 CNS | NCI-H23 lung | SNB-75 CNS | PC-3 prostate | MDA-MB-435 | SK-MEL-5 melanoma | RPMI-8226 leukemia | HS 578T breast | ACHN renal | DU-145 prostate | IGROV1 ovarian | U251 CNS | SR leukemia | SF-268 CNS | MCF7 breast | NCI-H460 lung | NCI-H226 lung | SK-MEL-28 melanoma | HT29 colon | HCT-116 colon | MDA-MB-231 breast | K-562 leukemia | OVCAR-4 ovarian | LOX IMVI melanoma | SK-OV-3 ovarian | M14 melanoma | SK-MEL-2 melanoma | UACC-257 melanoma | MALME-3M melanoma | CAKI-1 renal | COLO 205 colon | 786-0 renal | HCT-15 colon | SN12C renal | T-47D breast | RXF 393 renal | HOP-92 NSCLC | MDA-N | BT-549 breast | OVCAR-5 ovarian | UACC-62 melanoma | A549 NSCLC | EKVX NSCLC | NCI-H522 lung | TK-10 renal | HOP-62 NSCLC | MOLT-4 leukemia | UO-31 renal | SF-539 CNS | KM12 colon | A498 renal | SF-295 CNS | HCC-2998 colon
55 µM: OVCAR-3 ovarian

COc1c(C)cc2c(c1O)C1C3[C@H]4SC[C@@]5(NCCC6=C5NC5C=CC=CC65)C(=O)OCC(c5c6c(c(C)c(OC(C)=O)c54)OCO6)N3[C@@H](O)C(C2)N1C (stereo partly drawn)
1.45 µM: KM20L2 colon
1.85 µM: IGROV1 ovarian
12.8 µM: TK-10 renal
1.3 µM: SN12C renal
10.3 µM: HT29 colon
0.24 µM: EKVX NSCLC
0.0112 µM: UO-31 renal
> 100 µM: SR leukemia | HCT-116 colon
0.0859 µM: NCI-H226 lung
3.64 µM: SNB-19 CNS
1.92 µM: DLD-1 colon
< 0.01 µM: SNB-75 CNS | OVCAR-8 ovarian | SK-MEL-2 melanoma | UACC-257 melanoma | RXF 393 renal | XF 498 CNS | HOP-62 NSCLC
1.72 µM: A549 NSCLC
0.0109 µM: HCC-2998 colon

c1cnn(CN(Cn2cccn2)Cn2cccn2)c1
> 100 µM: SNB-19 CNS | NCI-H23 lung | SNB-75 CNS | KM20L2 colon | SK-MEL-5 melanoma | RPMI-8226 leukemia | ACHN renal | DMS 114 small cell lung | U251 CNS | SR leukemia | SF-268 CNS | NCI-H460 lung | CCRF-CEM leukemia | SK-MEL-28 melanoma | OVCAR-3 ovarian | M19-MEL melanoma | HCT-116 colon | K-562 leukemia | OVCAR-4 ovarian | DLD-1 colon | LOX IMVI melanoma | OVCAR-8 ovarian | SK-OV-3 ovarian | M14 melanoma | SK-MEL-2 melanoma | DMS 273 small cell lung | UACC-257 melanoma | CAKI-1 renal | COLO 205 colon | 786-0 renal | HCT-15 colon | SN12C renal | RXF 393 renal | HOP-92 NSCLC | XF 498 CNS | SW-620 colon | SNB-78 CNS | HL-60(TB) leukemia | UACC-62 melanoma | A549 NSCLC | EKVX NSCLC | NCI-H522 lung | TK-10 renal | HOP-62 NSCLC | MOLT-4 leukemia | UO-31 renal | SF-539 CNS | KM12 colon | A498 renal | SF-295 CNS
